# Assay results: US20140065070A1, “METHODS OF PREPARING TRIAZOLE-CONTAINING RADIOIODINATED COMPOUNDS” (MCMASTER UNIVERSITY, priority 2012, published 2014)
# Legend:
# [1] = at pH 7.4; comparison value; cited from earlier work
# LNCaP xenografts = assay: Biodistribution study of 123I-TAAG-PSMA in NCr nude mice bearing LNCaP xenografts; format: in vivo, NCr nude mice
# Procedure: LNCaP cells derived from lymph node metastases of human prostate carcinoma were purchased from ATCC. Cells were propagated using RPMI 1640 media supplemented with 10% Fetal Bovine Serum, 4 mM L-glutamine, 1 mM Sodium Pyruvate, 10 mM Hepes, 1% Penicillin Streptomycin (Invitrogen, Mississauga ON) and 0.25% D-glucose (Sigma, Oakville ON) and grown at 37° C. and 5% CO2. NCr nude homo male mice ordered from Taconic (Germantown, N.Y., USA) were injected with 2.0×10^6 LNCaP cells in 100 μL Matrigel/DPBS (1:1) subcutaneously into the right flank at 7 to 8 weeks of age. […] Animals were anesthetized with 3% isoflurane and euthanized by cervical dislocation. Blood, bone, liver, gall bladder, spleen, small intestine (with contents), large intestine and caecum (with contents), bladder, urine, skeletal muscle, brain, LNCaP tumour, heart, lung, salivary glands, kidneys, stomach (with contents), prostate, thyroid/trachea, adrenals, esophagus, tail, adipose and testes were collected, weighed and counted in a Perkin Elmer Wizard 1470 Automatic Gamma Counter. Decay correction was used to normalize organ activity measurements to time of dose preparation for data calculations with respect to injected dose (i.e. % ID/g).
# [2] = Log D pH 7.4 measurement (n-octanol/PBS); format: physicochemical; conditions: n-octanol/PBS pH 7.4
# Procedure: The samples were vortexed for 20 min and centrifuged at 6000 rpm for 5 min. Aliquots (0.1 mL) were subsequently removed from both the aqueous and the organic n-octanol layers and counted separately in a γ counter (Wallac Wizard 1470 automatic γ counter). Measurements represent three separate experiments with four extractions in each set for a total of twelve data points. The partition coefficients were then calculated using the equation D=(activity concentration in n-octanol)/(activity concentration in aqueous layer).
# LNCaP tumours = assay: SPECT-CT imaging study of 123I-TAAG-PSMA; format: in vivo, NCr mice
# Procedure: Prior to imaging, mice were anaesthetized with 2.5% isoflurane and maintained under same conditions for the length of the SPECT and CT scans. Imaging was conducted on the first mouse at 2 and 6 hours post injection and on the second mouse at 4 and 23 hours post injection. At each time point, multiple SPECT acquisitions were completed for 32 frames at 10 sec/frame for the 2 hour time point, 20 sec/frame for the 4 and 6 hour time point or 30 sec/frame for the 23 hour time point on a GammaMedica Ideas X-SPECT system (North Ridge, Calif.). CT acquisitions consisted of 512 projections acquired over 360° with 75 Kvp, 205 mA cone beam CT system. Cobra Exxim software (Feldkamp filtered backprojection cone beam reconstruction software) was used to reconstruct the images at a voxel size of 155 microns and a matrix size of 512^3. An OS-EM interactive reconstructed method (2 iterations/8 subsets) was used to reconstruct the SPECT data which was fused to the CT data using in-house software. AMIDE software was used to analyze the images.
# [3] = Stability of I-TAAG construct in solution; format: physicochemical; conditions: 48 hours
# Procedure: Reactions were complete within 10 min and the product was isolated by solid-phase extraction or semi-preparative HPLC.
# [4] = Biodistribution study of 123I-TAAG in normal Balb/c mice; format: in vivo; conditions: tail vein injection
# From the text: Animals were anesthetized with 3% isoflurane and euthanized by cervical dislocation. Blood, heart, lungs, liver, spleen, kidneys, adrenals, stomach (with contents), large intestine and caecum (with contents) and small intestines (with contents), bladder and urine, thyroid/trachea, bone, skeletal muscle and tail were collected, weighed and counted in a Perkin Elmer Wizard 1470 Automatic Gamma Counter. Decay correction was used to normalize organ activity measurements to time of dose preparation for data calculations with respect to injected dose (i.e. % ID/g).
# [5] = 1 hr + block (PMPA 10 mg/kg), NCr nude mice bearing LNCaP xenografts, mean ± SEM
# [6] = male, NCr nude, mouse, in vivo, 1 h
# [7] = male, NCr nude, mouse, in vivo, 23 h
# [8] = male, NCr nude, mouse, in vivo, 24 h
smiles,measurement,setting,value
O=C(O)c1ccc(I)cc1 [p-iodobenzoic acid],log D,[1],0.07
"O=C(O)CC[C@H](NC(=O)N[C@@H](CCCCNC(=O)Cn1cc(I)nn1)C(=O)O)C(=O)O [^123I-TAAG-PSMA, (S)-2-(3-((S)-1-carboxy-5-(2-(4-iodo-1H-1,2,3-triazol-1-yl)acetamido)pentyl)ureido)pentanedioic acid]","Tissue distribution, Adipose",LNCaP xenografts; [5],0.35 ± 0.21 % ID/g
same,"Tissue distribution, Adrenals",LNCaP xenografts; [5],3.34 ± 1.49 % ID/g
same,"Tissue distribution, Bladder",LNCaP xenografts; [5],10.78 ± 4.16 % ID/g
same,"Tissue distribution, Blood",LNCaP xenografts; [5],0.32 ± 0.06 % ID/g
same,"Tissue distribution, Bone",LNCaP xenografts; [5],0.26 ± 0.02 % ID/g
same,"Tissue distribution, Brain",LNCaP xenografts; [5],0.05 ± 0.02 % ID/g
same,"Tissue distribution, Esophagus",LNCaP xenografts; [5],0.32 ± 0.04 % ID/g
same,"Tissue distribution, Gall Bladder",LNCaP xenografts; [5],1.32 ± 0.53 % ID/g
same,"Tissue distribution, Heart",LNCaP xenografts; [5],0.15 ± 0.04 % ID/g
same,"Tissue distribution, Kidneys",LNCaP xenografts; [5],9.57 ± 5.17 % ID/g
same,"Tissue distribution, Large Intestine + Caecum",LNCaP xenografts; [5],0.12 ± 0.03 % ID/g
same,"Tissue distribution, Liver",LNCaP xenografts; [5],2.25 ± 0.29 % ID/g
same,"Tissue distribution, Lung",LNCaP xenografts; [5],0.36 ± 0.08 % ID/g
same,"Tissue distribution, Prostate",LNCaP xenografts; [5],3.85 ± 2.91 % ID/g
same,"Tissue distribution, Salivary Glands",LNCaP xenografts; [5],0.52 ± 0.12 % ID/g
same,"Tissue distribution, Skeletal Muscle",LNCaP xenografts; [5],0.19 ± 0.03 % ID/g
same,"Tissue distribution, Small Intestine",LNCaP xenografts; [5],0.30 ± 0.09 % ID/g
same,"Tissue distribution, Spleen",LNCaP xenografts; [5],0.13 ± 0.03 % ID/g
same,"Tissue distribution, Stomach",LNCaP xenografts; [5],0.49 ± 0.07 % ID/g
same,"Tissue distribution, Testes",LNCaP xenografts; [5],1.16 ± 1.05 % ID/g
same,"Tissue distribution, Thyroid/Trachea",LNCaP xenografts; [5],0.62 ± 0.24 % ID/g
same,"Tissue distribution, Urine",LNCaP xenografts; [5],486.70 ± 163.60 % ID/g
same,"Tissue distribution, Adipose",LNCaP xenografts; [6],1.73 ± 0.26 % ID/g
same,"Tissue distribution, Adrenals",LNCaP xenografts; [6],8.45 ± 2.13 % ID/g
same,"Tissue distribution, Bladder",LNCaP xenografts; [6],1.78 ± 0.23 % ID/g
same,"Tissue distribution, Blood",LNCaP xenografts; [6],0.81 ± 0.07 % ID/g
same,"Tissue distribution, Bone",LNCaP xenografts; [6],0.41 ± 0.07 % ID/g
same,"Tissue distribution, Brain",LNCaP xenografts; [6],0.06 ± 0.01 % ID/g
same,"Tissue distribution, Esophagus",LNCaP xenografts; [6],1.3 ± 0.26 % ID/g
same,"Tissue distribution, Gall Bladder",LNCaP xenografts; [6],1.28 ± 0.26 % ID/g
same,"Tissue distribution, Heart",LNCaP xenografts; [6],0.85 ± 0.29 % ID/g
same,"Tissue distribution, Kidneys",LNCaP xenografts; [6],137.54 ± 11.43 % ID/g
same,"Tissue distribution, Large Intestine + Caecum",LNCaP xenografts; [6],0.27 ± 0.06 % ID/g
same,"Tissue distribution, Liver",LNCaP xenografts; [6],2.32 ± 0.28 % ID/g
same,"Tissue distribution, Lung",LNCaP xenografts; [6],2.58 ± 0.46 % ID/g
same,"Tissue distribution, Prostate",LNCaP xenografts; [6],1.89 ± 0.62 % ID/g
same,"Tissue distribution, Salivary Glands",LNCaP xenografts; [6],2.97 ± 0.95 % ID/g
same,"Tissue distribution, Skeletal Muscle",LNCaP xenografts; [6],0.33 ± 0.04 % ID/g
same,"Tissue distribution, Small Intestine",LNCaP xenografts; [6],0.64 ± 0.13 % ID/g
same,"Tissue distribution, Spleen",LNCaP xenografts; [6],4.98 ± 1.31 % ID/g
same,"Tissue distribution, Stomach",LNCaP xenografts; [6],0.90 ± 0.07 % ID/g
same,"Tissue distribution, Testes",LNCaP xenografts; [6],0.69 ± 0.10 % ID/g
same,"Tissue distribution, Thyroid/Trachea",LNCaP xenografts; [6],1.46 ± 0.3 % ID/g
same,"Tissue distribution, Urine",LNCaP xenografts; [6],43.99 ± 5.54 % ID/g
same,"Tumor to tissue ratio, Tumour/blood",LNCaP xenografts; [6],28.22 ± 7.12
same,"Tumor to tissue ratio, Tumour/skeletal muscle",LNCaP xenografts; [6],78.06 ± 30.62
same,activity retained in the tumour,LNCaP xenografts; [7],15 % ID/g
same,remaining activity in the thyroid,LNCaP xenografts; [7],about 10 % ID/g
same,"Tissue distribution, Adipose",LNCaP xenografts; [8],0.02 ± 0.01 % ID/g
same,"Tissue distribution, Adrenals",LNCaP xenografts; [8],0.33 ± 0.07 % ID/g
same,"Tissue distribution, Bladder",LNCaP xenografts; [8],0.08 ± 0.02 % ID/g
same,"Tissue distribution, Blood",LNCaP xenografts; [8],0.01 ± 0.00 % ID/g
same,"Tissue distribution, Bone",LNCaP xenografts; [8],0.04 ± 0.01 % ID/g
same,"Tissue distribution, Brain",LNCaP xenografts; [8],0.03 ± 0.00 % ID/g
same,"Tissue distribution, Esophagus",LNCaP xenografts; [8],0.07 ± 0.01 % ID/g
same,"Tissue distribution, Gall Bladder",LNCaP xenografts; [8],0.19 ± 0.08 % ID/g
same,"Tissue distribution, Heart",LNCaP xenografts; [8],0.01 ± 0.00 % ID/g
same,"Tissue distribution, Kidneys",LNCaP xenografts; [8],0.99 ± 0.27 % ID/g
same,"Tissue distribution, LNCap Tumour",LNCaP xenografts; [8],15.31 ± 4.23 % ID/g
same,"Tissue distribution, Large Intestine + Caecum",LNCaP xenografts; [8],0.04 ± 0.01 % ID/g
same,"Tissue distribution, Liver",LNCaP xenografts; [8],0.03 ± 0.01 % ID/g
same,"Tissue distribution, Lung",LNCaP xenografts; [8],0.01 ± 0.00 % ID/g
same,"Tissue distribution, Prostate",LNCaP xenografts; [8],0.09 ± 0.03 % ID/g
same,"Tissue distribution, Salivary Glands",LNCaP xenografts; [8],0.05 ± 0.01 % ID/g
same,"Tissue distribution, Skeletal Muscle",LNCaP xenografts; [8],0.01 ± 0.00 % ID/g
same,"Tissue distribution, Small Intestine",LNCaP xenografts; [8],0.02 ± 0.01 % ID/g
same,"Tissue distribution, Spleen",LNCaP xenografts; [8],0.03 ± 0.00 % ID/g
same,"Tissue distribution, Stomach",LNCaP xenografts; [8],0.07 ± 0.03 % ID/g
same,"Tissue distribution, Testes",LNCaP xenografts; [8],0.01 ± 0.00 % ID/g
same,"Tissue distribution, Thyroid/Trachea",LNCaP xenografts; [8],9.36 ± 1.05 % ID/g
same,"Tissue distribution, Urine",LNCaP xenografts; [8],1.04 ± 0.39 % ID/g
same,"Tumor to tissue ratio, Tumour/blood",LNCaP xenografts; [8],1867 ± 499.72
same,"Tumor to tissue ratio, Tumour/skeletal muscle",LNCaP xenografts; [8],1531 ± 422.74
same,logD,[2],-3.23 ± 0.05
same,SPECT-CT image uptake,LNCaP tumours; 23-24 hours post injection,the activity was found only in the tumour and in the thyroid
same,SPECT-CT image uptake,LNCaP tumours; two hours post injection,"uptake of the agent in the kidneys, bladder and a small amount in the tumour"
"O=C(O)Cn1cc(I)nn1 [^123I-TAAG, 2-(4-iodo-1H-1,2,3-triazol-1-yl)acetic acid]",logD,[2],-2.58 ± 0.01
same,stability in solution,[3],stable over 48 hours in solution with no signs of deiodination
same,clearance from organs (biodistribution),[4],clears all major organs quickly and collects in the bladder within 30 minutes
